This passage reports pest or weed control results from patent US12077503B2, “Substituted cyclic amides and their use as herbicides” (FMC CORPORATION, priority 2015, dated 2024).

What all share (assay type): in vivo
The test system of assay [1] is ducksalad (Heteranthera limosa). The assay can be described thus: Test B flooded paddy test. Conditions: Heteranthera limosa, 250 g ai/ha, Flood; 0 to 100 scale where 0 is no effect and 100 is complete control; read-out: Ducksalad plant response rating. In short, it runs like this: (§1)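 Greenhouse paddy pots with 2-leaf stage plants received compound by direct addition to floodwater 3 cm deep, kept at that level. Scored visually at 13–15 d versus controls (0 no effect; 100 complete control).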

The next assay has as its system rice (Oryra sativa). The assay can be described thus: Test B flooded paddy test. Conditions: Oryza sativa, 250 g ai/ha, Flood; 0 to 100 scale where 0 is no effect and 100 is complete control; read-out: Rice plant response rating. Put shortly:
as §1

In assay [2] the test system is sedge, umbrella (small-flower umbrella sedge, Cyperus difformis). The assay can be described thus: Test B flooded paddy test. Conditions: Cyperus difformis, 250 g ai/ha, Flood; 0 to 100 scale where 0 is no effect and 100 is complete control; read-out: Sedge, Umbrella plant response rating. In short, it runs like this: as §1
Assay [3] deals with barnyardgrass (Echinochloa crus-galli). The assay can be described thus: Test B flooded paddy test. As to conditions: Echinochloa crus-galli, 250 g ai/ha, Flood; 0 to 100 scale where 0 is no effect and 100 is complete control; read-out: Barnyardgrass plant response rating. In short, it runs like this: as §1
The subject of assay [4] is giant foxtail (Setaria faberii). The assay can be described thus: Test A postemergence. As to conditions: Setaria faberi, post-emergence, 240 h, postemergence. In short, it runs like this: (§2)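 In a loam soil and sand blend, planted seeds got a preemergence directed soil spray, and young plants at the one- to two-leaf stage, 2–10 cm high, got a postemergence application; ~10 d greenhouse hold; injury rated visually, 0 = none, 100 = complete control.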

Assay [5] relates to ryegrass, Italian (Italian ryegrass, Lolium multiflorum). Kind of assay: Test A postemergence. As to conditions: Lolium multiflorum, post-emergence, 240 h, postemergence. Put shortly: as §2
Assay [6] relates to pigweed (Amaranthus retroflexus). The assay can be described thus: Test A postemergence. Conditions: Amaranthus retroflexus, post-emergence, 240 h, postemergence. In short, it runs like this:
as §2

Assay [7] deals with barnyardgrass (Echinochloa crus-galli). Kind of assay: Test A postemergence. As to conditions: Echinochloa crus-galli, post-emergence, 240 h, postemergence. In short, it runs like this:
as §2

In assay [8] the test system is giant foxtail (Setaria faberii). Kind of assay: Test A preemergence. As to conditions: Setaria faberi, pre-emergence, 240 h, preemergence, 0 to 100 scale where 0 is no effect and 100 is complete control, read-out: Foxtail, Giant plant response rating. Put shortly:
as §2

In assay [9] the test system is ragweed (common ragweed, Ambrosia elatior). The assay can be described thus: Test A preemergence. Conditions: Ambrosia artemisiifolia, pre-emergence, 240 h, preemergence, 0 to 100 scale where 0 is no effect and 100 is complete control, read-out: Ragweed plant response rating. In short, it runs like this: as §2
The test system of assay [10] is ryegrass, Italian (Italian ryegrass, Lolium multiflorum). The assay can be described thus: Test A preemergence. As to conditions: Lolium multiflorum, pre-emergence, 240 h, preemergence, 0 to 100 scale where 0 is no effect and 100 is complete control, read-out: Ryegrass, Italian plant response rating. Put shortly:
as §2

In the next assay the test system is Kochia (Kochia scoparia). Kind of assay: Test A preemergence. As to conditions: Bassia scoparia, pre-emergence, 240 h, preemergence, 0 to 100 scale where 0 is no effect and 100 is complete control, read-out: Kochia plant response rating. In short, it runs like this:
as §2

Assay [11] concerns pigweed (Amaranthus retroflexus). The assay can be described thus: Test A preemergence. Conditions: Amaranthus retroflexus, pre-emergence, 240 h, preemergence, 0 to 100 scale where 0 is no effect and 100 is complete control, read-out: Pigweed plant response rating.
Assay [12] relates to barnyardgrass (Echinochloa crus-galli). The assay can be described thus: Test A preemergence. As to conditions: Echinochloa crus-galli, pre-emergence, 240 h, preemergence, 0 to 100 scale where 0 is no effect and 100 is complete control, read-out: Barnyardgrass plant response rating. In short, it runs like this: as §2
Where [13] appears, read: 125 g ai/ha, visual injury rating, approximately 10 d.

Regarding `CN1C[C@H](c2ccc(C(F)(F)F)cc2)[C@@H](C(=O)Nc2cccc(Cl)c2F)C1=O` [Compound 1238], the pest or weed control at 250 g/ha (in assay [1]; with rice (Oryra sativa); in assay [2]; in assay [3]) was 0% in each case. For the same compound, the pest or weed control at 125 g/ha came out at 60% in assay [4] (125 g ai/ha, visual injury vs untreated controls after approx. 10 d, 0 = no effect, 100 = complete control, read-out: Foxtail, Giant plant response rating (0 to 100 scale)); 20% in assay [5] (125 g ai/ha, visual injury vs untreated controls after approx. 10 d, 0 = no effect, 100 = complete control, read-out: Ryegrass, Italian plant response rating (0 to 100 scale)); 0% in [6] (125 g ai/ha, visual injury vs untreated controls after approx. 10 d, 0 = no effect, 100 = complete control, read-out: Pigweed plant response rating (0 to 100 scale)); 50% in assay [7] (125 g ai/ha, visual injury vs untreated controls after approx. 10 d, 0 = no effect, 100 = complete control, read-out: Barnyardgrass plant response rating (0 to 100 scale)); 90% in [8] (setting [13]); 0% in assay [9] (setting [13]). In addition, the pest or weed control at 125 g/ha in assay [10] (setting [13]) amounted to 0%; in the assay with Kochia (Kochia scoparia) (setting [13]) it was 60%; in assay [11] (setting [13]), 0%; in assay [12] (setting [13]), 80%. The pest or weed control at 500 g/ha is 80% in assay [4] (500 g ai/ha, 0 to 100 scale, 0 is no effect, 100 is complete control, read-out: Foxtail, Giant plant response rating); 60% in [5] (500 g ai/ha, 0 to 100 scale, 0 is no effect, 100 is complete control, read-out: Ryegrass, Italian plant response rating); 30% in assay [6] (500 g ai/ha, 0 to 100 scale, 0 is no effect, 100 is complete control, read-out: Pigweed plant response rating); 80% in assay [7] (500 g ai/ha, 0 to 100 scale, 0 is no effect, 100 is complete control, read-out: Barnyardgrass plant response rating); 90% in assay [8] (500 g ai/ha); 50% in [9] (500 g ai/ha). Moreover, the pest or weed control at 500 g/ha in assay [10] (500 g ai/ha) was 50%; with Kochia (Kochia scoparia) (500 g ai/ha), 60%; in [11] (500 g ai/ha), 60%; in assay [12] (500 g ai/ha) it was 90%.
